Biological target: Tyrosine-protein kinase BTK (Homo sapiens, UniProt Q06187)
Assay: Inhibition Assay: Plates assayed are 96-well polypropylene (Greiner) and 96-well 1.2 μm hydrophilic PVDF filter plates (Millipore). Concentrations reported here are final assay concentrations: 10-100 μM compounds in DMSO (Burdick and Jackson), 5-10 nM Btk enzyme (His-tagged, full-length), 30 μM peptide substrate (Biotin-Aca-[…]-NH2), 100 μM ATP (Sigma), 8 mM imidazole (Sigma, pH 7.2), 8 mM glycerol-2-phosphate (Sigma), 200 μM EGTA (Roche Diagnostics), 1 mM MnCl2 (Sigma), 20 mM MgCl2 (Sigma), 0.1 mg/ml BSA (Sigma), 2 mM DTT (Sigma), 1 μCi 33P ATP (Amersham), 20% streptavidin sepharose beads (Amersham), 50 mM EDTA (Gibco), 2 M NaCl (Gibco), 2 M NaCl w/1% phosphoric acid (Gibco), microscint-20 (Perkin Elmer).

Chain of Tyrosine-protein kinase BTK (Q06187 whole entry): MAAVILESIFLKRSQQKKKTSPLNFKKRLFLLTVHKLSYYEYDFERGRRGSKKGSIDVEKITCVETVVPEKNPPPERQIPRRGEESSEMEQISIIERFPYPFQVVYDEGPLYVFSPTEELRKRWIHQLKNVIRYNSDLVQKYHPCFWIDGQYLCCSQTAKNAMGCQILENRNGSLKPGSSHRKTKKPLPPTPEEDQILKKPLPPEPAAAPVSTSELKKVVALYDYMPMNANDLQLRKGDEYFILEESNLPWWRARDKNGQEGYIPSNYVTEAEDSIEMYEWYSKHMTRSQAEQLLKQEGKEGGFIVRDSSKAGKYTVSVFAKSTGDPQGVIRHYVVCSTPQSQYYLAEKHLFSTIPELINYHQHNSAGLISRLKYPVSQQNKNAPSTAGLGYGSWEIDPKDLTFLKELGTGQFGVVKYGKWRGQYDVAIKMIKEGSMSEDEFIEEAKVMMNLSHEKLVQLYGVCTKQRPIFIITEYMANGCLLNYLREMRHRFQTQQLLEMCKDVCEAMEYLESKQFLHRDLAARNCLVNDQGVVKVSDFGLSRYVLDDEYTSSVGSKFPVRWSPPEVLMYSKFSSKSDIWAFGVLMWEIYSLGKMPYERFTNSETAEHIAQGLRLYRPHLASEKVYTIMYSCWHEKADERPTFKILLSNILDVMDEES

IC50: 0.09 nM
SMILES: CC(C)(C)c1cc(F)c2c(=O)n(-c3cccc(-n4cc(C(N)=O)c(Nc5ccc(S(C)(=O)=O)cc5)n4)c3CO)ncc2c1

Source: ChEMBL document CHEMBL3639151, “Inhibitors of bruton's tyrosine kinase” (2014)
